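These data come from cells grown in 96-well plates and exposed to compound for 48 hours at five concentrations. GI50: concentration for 50% inhibition of growth.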 Active and inactive are the calls of the source. Rule as the data show it: active = GI50 up to about 1.1 µM and inactive = higher.
How the values were obtained:
Test in all cases: growth of human tumour cells (NCI), 48 h
SNB-75 = tested on: SNB-75
SNB-19 = tested on: SNB-19
DLD-1 = tested on: DLD-1
TK-10 = tested on: TK-10
HCT-15 = tested on: HCT-15
SN12C = tested on: SN12C
CCRF-CEM = tested on: CCRF-CEM
SK-MEL-2 = tested on: SK-MEL-2
OVCAR-8 = tested on: OVCAR-8
UO-31 = tested on: UO-31
NCI-H23 = tested on: NCI-H23
COLO 205 = tested on: COLO 205
RPMI-8226 = tested on: RPMI-8226
SW-620 = tested on: SW-620
ACHN = tested on: ACHN
KM12 = tested on: KM12
RXF 393 = tested on: RXF 393
BT-549 = tested on: BT-549
NCI/ADR-RES = tested on: NCI/ADR-RES
MCF7 = tested on: MCF7

Structure (SMILES) | GI50 (SNB-75) | GI50 (SNB-19) | GI50 (DLD-1) | GI50 (TK-10) | GI50 (HCT-15) | GI50 (SN12C) | GI50 (CCRF-CEM) | GI50 (SK-MEL-2) | GI50 (OVCAR-8) | GI50 (UO-31) | GI50 (NCI-H23) | GI50 (COLO 205) | GI50 (RPMI-8226) | GI50 (SW-620) | GI50 (ACHN) | GI50 (KM12) | GI50 (RXF 393) | GI50 (BT-549) | GI50 (NCI/ADR-RES) | GI50 (MCF7)
C1=Cc2nc1c(-c1ccccc1)c1ccc([n-]1)c(-c1ccccc1)c1nc(c(-c3ccccc3)c3ccc([n-]3)c2-c2ccccc2)C=C1.[Zn+2] | 67.5 µM (inactive) | > 100 µM (inactive) | 70.1 µM (inactive) | > 100 µM (inactive) | > 100 µM | > 100 µM (inactive) | > 100 µM (inactive) | > 100 µM (inactive) | > 100 µM (inactive) | > 100 µM (inactive) | > 100 µM (inactive) | > 100 µM (inactive) | 75.7 µM (inactive) | > 100 µM (inactive) | > 100 µM (inactive) | > 100 µM (inactive) | – | – | – | –
C/C(=N\NS(=O)(=O)c1c(C)cc(C)cc1C)c1ccc[n+]([O-])n1 | 16.9 µM (inactive) | > 100 µM (inactive) | 7.16 µM (inactive) | – | 14.7 µM | 14.9 µM (inactive) | 3.96 µM (inactive) | – | 19.6 µM (inactive) | 21.2 µM (inactive) | 15.5 µM (inactive) | – | 11.7 µM (inactive) | 8.05 µM (inactive) | 14.2 µM (inactive) | 38.5 µM (inactive) | – | – | – | –
O=C(O)CCC1c2[nH]c3ccccc3c2CCN1Cc1ccccc1 (stereo not given) | > 100 µM (inactive) | > 100 µM (inactive) | > 100 µM (inactive) | > 100 µM (inactive) | > 100 µM | > 100 µM (inactive) | > 100 µM (inactive) | > 100 µM (inactive) | > 100 µM (inactive) | > 100 µM (inactive) | > 100 µM (inactive) | > 100 µM (inactive) | – | > 100 µM (inactive) | > 100 µM (inactive) | > 100 µM (inactive) | – | – | – | –
COc1ccc(/N=N/c2c(-c3ccccc3)nn(C(=O)CC(=O)Nc3ccc(OC)cc3)c2-c2ccccc2)cc1 | 16 µM (inactive) | 29.9 µM (inactive) | > 100 µM (inactive) | 52.7 µM (inactive) | > 100 µM | > 100 µM (inactive) | 23.7 µM (inactive) | 88.3 µM (inactive) | > 100 µM (inactive) | > 100 µM (inactive) | 33 µM (inactive) | > 100 µM (inactive) | > 100 µM (inactive) | > 100 µM (inactive) | 97.3 µM (inactive) | > 100 µM (inactive) | – | – | – | –
O=c1[nH]c2cc([N+](=O)[O-])ccc2nc1/C(=N\NO)C(O)c1ccc([N+](=O)[O-])cc1 (stereo not given) | > 100 µM (inactive) | > 100 µM (inactive) | > 100 µM (inactive) | – | 35.2 µM | 98.9 µM (inactive) | 66.2 µM (inactive) | – | > 100 µM (inactive) | > 100 µM (inactive) | > 100 µM (inactive) | > 100 µM (inactive) | > 100 µM (inactive) | > 100 µM (inactive) | 52.5 µM (inactive) | 65 µM (inactive) | > 100 µM (inactive) | – | – | –
CCOC(=O)C(c1c[nH]c2ccccc12)(c1c[nH]c2ccccc12)c1c[nH]c2ccccc12 | 20.4 µM (inactive) | 26.5 µM (inactive) | – | 41.3 µM (inactive) | 34.7 µM | 43 µM (inactive) | 17.2 µM (inactive) | 18.8 µM (inactive) | 36.2 µM (inactive) | 30.3 µM (inactive) | 70.8 µM (inactive) | 15.7 µM (inactive) | 11.7 µM (inactive) | 19.8 µM (inactive) | 37.1 µM (inactive) | 28.5 µM (inactive) | 21.7 µM (inactive) | 44.4 µM (inactive) | 82.6 µM (inactive) | 19.7 µM (inactive)
Cc1ccc(C2CC(=O)CC(c3ccc(C)cc3)C23C(=O)NC(=O)NC3=O)cc1 (stereo not given) | > 100 µM (inactive) | > 100 µM (inactive) | – | > 100 µM (inactive) | > 100 µM | > 100 µM (inactive) | > 100 µM (inactive) | > 100 µM (inactive) | > 100 µM (inactive) | > 100 µM (inactive) | > 100 µM (inactive) | > 100 µM (inactive) | > 100 µM (inactive) | > 100 µM (inactive) | > 100 µM (inactive) | > 100 µM (inactive) | > 100 µM (inactive) | > 100 µM (inactive) | > 100 µM (inactive) | > 100 µM (inactive)
NC(=O)c1cc2ccc(O)cc2o/c1=N/c1ccccc1 | 13.5 µM (inactive) | 36 µM (inactive) | – | 27.1 µM (inactive) | 26.4 µM | 22.3 µM (inactive) | 37.5 µM (inactive) | 17.2 µM (inactive) | 30.3 µM (inactive) | 3.6 µM (inactive) | 18.1 µM (inactive) | 18.5 µM (inactive) | 20.7 µM (inactive) | 26.2 µM (inactive) | 24.9 µM (inactive) | 27.2 µM (inactive) | 26.2 µM (inactive) | 24.4 µM (inactive) | 23.8 µM (inactive) | 31.2 µM (inactive)
CCN(C(=O)N[C@H](C(=O)N[C@@H](C)C(=O)OC)C(C)C)c1ccccc1 | 32.1 µM (inactive) | 64.3 µM (inactive) | – | 35.7 µM (inactive) | 32.4 µM | 33 µM (inactive) | 56 µM (inactive) | 28.8 µM (inactive) | 24.5 µM (inactive) | 43.3 µM (inactive) | 64.3 µM (inactive) | 20 µM (inactive) | 33.4 µM (inactive) | 39.2 µM (inactive) | 45.2 µM (inactive) | 39.6 µM (inactive) | 39.5 µM (inactive) | 60.4 µM (inactive) | > 100 µM (inactive) | 31 µM (inactive)
N#CCCC1(CCC#N)S(=O)(=O)OCCOS1(=O)=O | 32.1 µM (inactive) | 48.8 µM (inactive) | – | > 100 µM (inactive) | 36.8 µM | 29.6 µM (inactive) | 28.7 µM (inactive) | 42.2 µM (inactive) | 89.1 µM (inactive) | 50.5 µM (inactive) | 36.1 µM (inactive) | 85.9 µM (inactive) | 37 µM (inactive) | 24.1 µM (inactive) | 32.4 µM (inactive) | 32 µM (inactive) | 37.1 µM (inactive) | 6.04 µM (inactive) | 19.2 µM (inactive) | 34.2 µM (inactive)
N#Cc1nc(COCCOCc2ccccc2)oc1N | > 100 µM (inactive) | > 100 µM (inactive) | – | > 100 µM (inactive) | > 100 µM | > 100 µM (inactive) | 30 µM (inactive) | > 100 µM (inactive) | > 100 µM (inactive) | > 100 µM (inactive) | > 100 µM (inactive) | > 100 µM (inactive) | > 100 µM (inactive) | > 100 µM (inactive) | > 100 µM (inactive) | > 100 µM (inactive) | > 100 µM (inactive) | 88.9 µM (inactive) | > 100 µM (inactive) | > 100 µM (inactive)
C[N+]1(C)[C@@H]2CC[C@H]1C[C@@H](OC(=O)C(CO)c1ccccc1)C2 (stereo not given in full) [ATROPINE METHYLBROMIDE] | > 100 µM (inactive) | > 100 µM (inactive) | – | > 100 µM (inactive) | > 100 µM | > 100 µM (inactive) | > 100 µM (inactive) | > 100 µM (inactive) | > 100 µM (inactive) | > 100 µM (inactive) | > 100 µM (inactive) | > 100 µM (inactive) | > 100 µM (inactive) | > 100 µM (inactive) | > 100 µM (inactive) | > 100 µM (inactive) | > 100 µM (inactive) | > 100 µM (inactive) | > 100 µM (inactive) | > 100 µM (inactive)
Nc1nc2c(c(-c3ccccc3Cl)n1)COC/C2=C\c1ccccc1Cl | 15.9 µM (inactive) | 15.7 µM (inactive) | – | 17.6 µM (inactive) | 15.9 µM | 16.6 µM (inactive) | 11.7 µM (inactive) | 16.9 µM (inactive) | 16 µM (inactive) | 17.1 µM (inactive) | 17.1 µM (inactive) | 16.3 µM (inactive) | 10.6 µM (inactive) | 16.6 µM (inactive) | 17.9 µM (inactive) | 17.9 µM (inactive) | 16 µM (inactive) | 16 µM (inactive) | 16.8 µM (inactive) | 14.5 µM (inactive)
CC12CCC3(OCCO3)C(OC(=O)c3ccccc3)=C1CCC21OCCO1 (stereo not given) | > 100 µM (inactive) | > 100 µM (inactive) | > 100 µM (inactive) | > 100 µM (inactive) | > 100 µM | > 100 µM (inactive) | > 100 µM (inactive) | – | > 100 µM (inactive) | > 100 µM (inactive) | – | 63.1 µM (inactive) | 71.3 µM (inactive) | > 100 µM (inactive) | > 100 µM (inactive) | > 100 µM (inactive) | > 100 µM (inactive) | – | – | –
COc1cc(OC)c(C2(c3c(OC(C)C)c(=O)c3=O)SCCCS2)cc1OC | > 100 µM (inactive) | > 100 µM (inactive) | – | > 100 µM (inactive) | > 100 µM | > 100 µM (inactive) | > 100 µM (inactive) | > 100 µM (inactive) | > 100 µM (inactive) | > 100 µM (inactive) | > 100 µM (inactive) | > 100 µM (inactive) | > 100 µM (inactive) | > 100 µM (inactive) | > 100 µM (inactive) | > 100 µM (inactive) | > 100 µM (inactive) | > 100 µM (inactive) | > 100 µM (inactive) | > 100 µM (inactive)
CCc1nc(N)nc(N)c1-c1ccc2nn(-c3ccccc3)[n+]([O-])c2c1 | 21.3 µM (inactive) | 16.3 µM (inactive) | – | 15 µM (inactive) | 0.697 µM | 9.38 µM (inactive) | 1.6 µM (inactive) | 14.3 µM (inactive) | 2.42 µM (inactive) | 7.13 µM (inactive) | 1.87 µM (inactive) | 8.22 µM (inactive) | 8.24 µM (inactive) | 0.869 µM (active) | 1.76 µM (inactive) | 5.45 µM (inactive) | 10.3 µM (inactive) | 11.9 µM (inactive) | 3.13 µM (inactive) | 4.17 µM (inactive)
